Results taken from US9277747B2, “Agricultural composition comprising pH sensitive agricultural chemicals and organic pH buffer” (NUTRIAG LTD., priority 2010, dated 2016).

Key:
[1] = known triarylmethane dyes; colour change from lower pH to higher pH; cited from earlier work
[2] = Storage stability of concentrates at elevated temperatures; conditions: pH indicator in agricultural concentrate with carbohydrate acids as pH modifying agent

SMILES | Range of pH colour transition [1] | stability of the pH indicator in the presence of carbohydrate acids / carbohydrate acid mixture [2]
Cc1cc(C2(c3cc(C)c(O)c(Br)c3)OS(=O)(=O)c3ccccc32)cc(Br)c1O [bromocresol purple] | pH 5.2-6.8 | –
O=S1(=O)OC(c2ccc(O)c(Cl)c2)(c2ccc(O)c(Cl)c2)c2ccccc21 [chlorophenol red] | pH 4.8-6.7 | low stability
O=S1(=O)OC(c2cc(Br)c(O)c(Br)c2)(c2cc(Br)c(O)c(Br)c2)c2ccccc21 [bromophenol blue] | pH 3.0-4.6 | –
Cc1c(C2(c3cc(Br)c(O)c(Br)c3C)OS(=O)(=O)c3ccccc32)cc(Br)c(O)c1Br [bromocresol green] | pH 3.8-5.4 | –
